Test results taken from PubChem BioAssay (NCI).
“And” between values parts separate entries of the source, which are not always exact repeats. Equal entries are not always repeated.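 Method: 48-hour compound exposure of cells in 96-well plates, five concentrations, linear interpolation of endpoints. GI50: concentration for 50% inhibition of growth. TGI denotes the concentration required for complete inhibition of growth.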

Assays:
Test in all cases: growth of human tumour cells (NCI), 48 h
MDA-MB-435 = test system: MDA-MB-435
MALME-3M melanoma = test system: MALME-3M melanoma
UO-31 renal = test system: UO-31 renal
A498 renal = test system: A498 renal
786-0 renal = test system: 786-0 renal
SNB-75 CNS = test system: SNB-75 CNS
NCI-H460 lung = test system: NCI-H460 lung
M14 melanoma = test system: M14 melanoma
SK-MEL-5 melanoma = test system: SK-MEL-5 melanoma
SK-MEL-2 melanoma = test system: SK-MEL-2 melanoma

Structure (SMILES)	GI50 (MDA-MB-435)	TGI (MDA-MB-435)	GI50 (MALME-3M melanoma)	TGI (MALME-3M melanoma)	GI50 (UO-31 renal)	TGI (UO-31 renal)	GI50 (A498 renal)	TGI (A498 renal)	GI50 (786-0 renal)	TGI (786-0 renal)	GI50 (SNB-75 CNS)	TGI (SNB-75 CNS)	GI50 (NCI-H460 lung)	TGI (NCI-H460 lung)	GI50 (M14 melanoma)	TGI (M14 melanoma)	GI50 (SK-MEL-5 melanoma)	TGI (SK-MEL-5 melanoma)	GI50 (SK-MEL-2 melanoma)	TGI (SK-MEL-2 melanoma)
O=c1oc2ccccc2c(Cl)c1Cl	3.32 µM	11.4 µM	2.23 µM	12.4 µM	1.83 µM	4.73 µM	10.4 µM	22.4 µM	5.82 µM	18.7 µM	2.85 µM	12.9 µM	3.21 µM	12.1 µM	3.47 µM	14.1 µM	4.94 µM	16.9 µM	–	–
CC(C)(C)[Si](C)(C)OC1[C@@H](O[Si](C)(C)C(C)(C)C)[C@@H](CNC(=O)NC(=O)NC(=O)CI)O[C@H]1n1cnc2c(NC(=O)Nc3ccccc3)ncnc21 (some centres not stated)	7.83 µM	20.8 µM	0.143 µM	0.565 µM	0.0888 µM	0.178 µM	3.61 µM	11.4 µM	0.357 µM	1.08 µM	0.651 µM	3.17 µM	4.79 µM	21.7 µM	6.1 µM	14.6 µM	8.73 µM	16.3 µM	8.07 µM	17.7 µM
O=C(O)C1CCCN1Cc1c[nH]c2ccccc12 (configuration not stated)	–	> 100 µM	–	> 100 µM	–	> 100 µM	–	> 100 µM	–	> 100 µM	–	> 100 µM	–	> 100 µM	–	> 100 µM	–	> 100 µM	–	> 100 µM
Cc1ccc2c(/C=C/C(=O)c3cc(CN4CCOCC4)c(O)c4nc(C)ccc34)cc(CN3CCOCC3)c(O)c2n1	0.669 µM	2.3 µM	2 µM	10.6 µM	0.371 µM	1.6 µM	1.8 µM	3.37 µM	1.4 µM	5.45 µM	0.938 µM	16.6 µM	0.385 µM	9.37 µM	0.564 µM	11.7 µM	0.581 µM	2.32 µM	0.623 µM	13.1 µM
Cc1c2ncccc2c(C)c2c1[nH]c1ccc(O)cc12	–	20.9 µM	6.44 µM and 32.7 µM	23.2 µM and 103 µM	8.04 µM	16.7 µM and 28.4 µM	–	26.1 µM	5.25 µM	15.6 µM and 11.6 µM	7.45 µM and 15.2 µM	–	2.78 µM and 1.6 µM	12.8 µM and 7.17 µM	8.67 µM	17.2 µM	3.95 µM	20.4 µM and 15 µM	–	97.5 µM
NCCCn1c2c(c3ccccc3c1=O)C(=O)c1cc3c(cc1-2)OCO3	1.43 µM	8.1 µM	1.48 µM	6.64 µM	0.265 µM	1.99 µM	–	–	0.241 µM	3.1 µM	–	1.72 µM	0.0547 µM	12.6 µM	0.118 µM	1.51 µM	0.122 µM	0.802 µM	3.47 µM	12.8 µM
Nc1nc(SCC(=O)O)[nH]c(=O)c1N	–	> 100 µM	–	> 100 µM	–	> 100 µM	–	> 100 µM	–	> 100 µM	–	> 100 µM	–	> 100 µM	–	> 100 µM	–	> 100 µM	–	> 100 µM
COC(=O)/C=C1\SC(=Nc2ccc(C(F)(F)F)cc2)N(CCc2c[nH]c3ccccc23)C1=O	1.56 µM	3.03 µM	1.79 µM	3.3 µM	1.3 µM	2.56 µM	1.5 µM	2.98 µM	1.56 µM	2.95 µM	1.21 µM	2.48 µM	2.04 µM	4.28 µM	1.46 µM	2.9 µM	1.69 µM	3.06 µM	1.65 µM	3.43 µM
O=C(Nc1ncc([N+](=O)[O-])s1)c1cccc([N+](=O)[O-])c1	3.16 µM	20.9 µM	2.79 µM	8.5 µM	2.55 µM	9.87 µM	2.1 µM	24.5 µM	2.57 µM	> 92 µM	10.7 µM	88 µM	2.8 µM	> 100 µM	3.85 µM	24.1 µM	2.75 µM	11.5 µM	–	–
COc1cc(/C=C2\CC(C)CC3C2=NN(c2ccccc2)C3c2cc(OC)c(OC)c(OC)c2)cc(OC)c1OC (configuration not stated)	8.53 µM	47.7 µM	21.3 µM	> 100 µM	22 µM	> 100 µM	13.5 µM	42.5 µM	27 µM	> 100 µM	25.4 µM	87.5 µM	11.1 µM	28.4 µM	14.9 µM	52.1 µM	11.8 µM	24.2 µM	15.6 µM	93 µM
CCOC(=O)Oc1c(OC)cc(C(=O)c2ccc(OC)c(OC(=O)CCl)c2OC)cc1OC	0.239 µM	0.773 µM	0.688 µM	79.9 µM	3.07 µM	> 100 µM	3 µM	16.6 µM	3.45 µM	> 100 µM	0.528 µM	> 100 µM	2.09 µM	44.9 µM	0.491 µM	> 100 µM	0.475 µM	14.9 µM	0.668 µM	60.2 µM
COc1ccc(-c2nc3sccn3c2/C=C/C(=O)c2cc(OC)c(OC)c(OC)c2)cc1OC	2.84 µM	19.1 µM	3.33 µM	54.1 µM	0.639 µM	8.19 µM	2.6 µM	8.2 µM	3.36 µM	20.4 µM	1.99 µM	5.43 µM	1.99 µM	3.76 µM	3.1 µM	9.3 µM	1.54 µM	2.99 µM	1.87 µM	4.65 µM
CC1/C=C/C=C/CC/C=C/C=C/C=C/C=C/C(OC2OC(C)C(O)C(N)C2O)CC2OC(CC(O)C(O)CCC(O)CC(O)CC(O)CC(=O)OC(C)C(C)C1O)CC(O)C2C(=O)O (configuration not stated)	28.1 µg/mL	31.9 µM and 50.1 µg/mL	28.1 µg/mL	33 µM and 51.3 µg/mL	20 µg/mL	35.8 µM and 40.6 µg/mL	25.8 µg/mL	33.2 µM and 46.5 µg/mL	25.8 µg/mL	31.3 µM and 50.1 µg/mL	58.2 µg/mL	40.6 µM and 150 µg/mL	30.4 µg/mL	39.7 µM and 87.7 µg/mL	27.8 µg/mL	34.9 µM and 48.8 µg/mL	47.3 µg/mL	58.9 µM and 150 µg/mL	31.8 µg/mL	92.4 µM and 94.1 µg/mL
Clc1ccc(N2COOC3(OOC2)C2CC4CC(C2)CC3C4)cc1	1.61 µM	13.2 µM	14.4 µM	> 100 µM	0.579 µM	2.21 µM	11.9 µM	> 100 µM	1.21 µM	5.73 µM	10.8 µM	55.2 µM	1.57 µM	9.27 µM	1.48 µM	> 100 µM	1.25 µM	> 24.2 µM	10.5 µM	> 88.3 µM
CC1=C(C(=O)Nc2ccc(F)c(Cl)c2)C(c2cccc(O)c2)NC(=S)N1 (configuration not stated)	11.6 µM	28.9 µM	–	–	> 50 µM	> 50 µM	9.45 µM	33.5 µM	19.1 µM	> 50 µM	14.4 µM	41.3 µM	22.8 µM	> 50 µM	14.7 µM	> 50 µM	11.2 µM	40.3 µM	20.3 µM	> 50 µM
O=C1NC(=O)[C@@H](c2cn3c4c(cccc24)CCC3)[C@@H]1c1c[nH]c2ccccc12	0.146 µM and 0.125 µM	0.431 µM and 0.367 µM	0.987 µM and 0.434 µM	> 10 µM and 26.6 µM	0.552 µM and 0.519 µM	> 10 µM and 27.1 µM	0.283 µM and 0.292 µM	> 2.68 µM and 3.22 µM	0.544 µM and 0.809 µM	> 10 µM and 18.8 µM	0.348 µM and 0.198 µM	–	0.365 µM and 0.372 µM	> 10 µM and 8.55 µM	0.31 µM and 0.372 µM	> 10 µM and 10.8 µM	0.266 µM and 0.289 µM	1.36 µM and 3.07 µM	0.37 µM and 0.57 µM	> 10 µM and 20.8 µM
Clc1ccc(Nc2ccnc(NCCNc3ccnc4cc(Cl)ccc34)n2)cc1	1.37 µM	2.68 µM	1.74 µM	3.48 µM	1.21 µM	2.6 µM	1.13 µM	2.39 µM	1.62 µM	3.44 µM	1.22 µM	2.47 µM	1.34 µM	2.86 µM	1.4 µM	3.09 µM	1.31 µM	2.59 µM	1.96 µM	3.5 µM
O=C1NC(=O)C2=C1CCC2O (configuration not stated)	–	> 100 µM	–	> 100 µM	–	> 100 µM	–	> 100 µM	–	> 100 µM	–	> 100 µM	–	> 100 µM	–	> 100 µM	–	–	–	> 100 µM
O=C1C(Cl)=C(Oc2ccccc2)C(=O)c2ccccc21	8.06 µM	24.1 µM	1.6 µM	3.41 µM	1.23 µM	3.23 µM	9.24 µM	22.6 µM	15.6 µM	29.1 µM	1.93 µM	12.9 µM	5.57 µM	23.1 µM	8.55 µM	22 µM	6.26 µM	17.1 µM	6.56 µM	19.4 µM
CCNCCNc1cc(-c2ccc(Cl)cc2)c(C#N)c2nc3ccccc3n12	1.58 µM	2.95 µM	1.69 µM	3.38 µM	1.49 µM	2.94 µM	2.01 µM	3.52 µM	1.49 µM	2.87 µM	1.33 µM	2.67 µM	1.79 µM	3.37 µM	1.88 µM	3.38 µM	1.7 µM	3.11 µM	2.06 µM	3.89 µM
CC(=O)C(C(=N)C#N)C(=O)Nc1ccccc1 (configuration not stated)	–	> 100 µM	–	> 100 µM	–	–	–	> 100 µM	–	> 100 µM	–	> 100 µM	–	> 100 µM	–	> 100 µM	–	> 100 µM	–	> 100 µM
CCOC(=O)c1sc2ncn(Cc3cccc(Cl)c3)c(=O)c2c1C	13.9 µM	26.9 µM	–	–	13.5 µM	26.4 µM	15.9 µM	30.7 µM	13.1 µM	25.7 µM	16.4 µM	29.9 µM	18.7 µM	39.7 µM	15.4 µM	28.7 µM	14.9 µM	28.1 µM	15.1 µM	29.1 µM
C[C@@H](Oc1cc(-c2cnn(C3CCNCC3)c2)cnc1N)c1c(Cl)ccc(F)c1Cl	0.715 µM	> 10 µM	1.22 µM	2.61 µM	1.08 µM	4.74 µM	1.51 µM	5.34 µM	2.72 µM	8.94 µM	–	–	0.662 µM	9.32 µM	1.08 µM	2.65 µM	1.47 µM	2.84 µM	1.82 µM	4.54 µM
C=C(CN1CCc2ccccc2C1)c1ccc(/C=C/C(=O)Nc2ccccc2N)cc1	4.89 µM	80.7 µM	0.309 µM	8.04 µM	0.437 µM	> 100 µM	16.4 µM	36.8 µM	3.81 µM	24.4 µM	–	–	3.18 µM	38.1 µM	–	–	13 µM	31.4 µM	7.51 µM	> 100 µM
O=C(Oc1cccc(Nc2ncnc3ccccc23)c1)c1ccccc1Cl	41.6 µM	> 100 µM	23.9 µM	57.1 µM	36.4 µM	> 100 µM	23.8 µM	49.4 µM	20.8 µM	71.9 µM	–	–	20.3 µM	52.7 µM	39.7 µM	> 100 µM	14.6 µM	28.2 µM	–	–
COc1cccc2c(Nc3ccc(C(=O)NCCNCCO)cc3)cc(-c3ccccc3)nc12	27.8 µM	75.5 µM	21 µM	37.9 µM	> 100 µM	> 100 µM	62.5 µM	> 100 µM	33.5 µM	> 100 µM	–	34.9 µM	–	–	26.9 µM	74.7 µM	38.6 µM	> 100 µM	19.5 µM	40.8 µM
COC(=O)c1ccc(-c2nc3cc(F)c(F)cc3nc2C#N)cc1	8.21 µM	16.4 µM	7.64 µM	16.5 µM	11.2 µM	33.5 µM	14.4 µM	23.9 µM	26.4 µM	50 µM	–	–	9.86 µM	19.2 µM	8.28 µM	18.9 µM	6.87 µM	13.7 µM	14.9 µM	46.7 µM
